# In PMC10891803, “Seleno-Warfare against Cancer: Decoding Antitumor Activity of Novel Acylselenoureas and Se-Acylisoselenoureas” (Pharmaceutics, 2024):
# Tests used:
# HTB-54 = assay: MTT cell viability assay, HTB-54; assay type: cell-based, human; details: 48 h; for percentage of cell growth, HTB-54: 10 µM, MTT screening (Figure S1); for IC50: Homo sapiens, HTB-54, MTT, mean ± SD of three experiments, read-out: IC50 HTB-54 (Lung)
# Protocol: (§1) The cell lines were purchased from the American Type Culture Collection (ATCC). The four tumor cell lines used were as follows: MDA-MB-231 (triple-negative breast cancer), HTB-54 (lung cancer), DU-145 (prostate cancer), and HCT-116 (colon cancer), and the non-tumoral cell line 185-B5 (mammary tissue) were grown in Roswell Park Memorial Institute (RPMI) 1640 medium culture (Thermo Scientific, USA), supplemented with 10% fetal bovine serum (FBS) (Thermo Scientific, USA) and 1% of antibiotics (10,000 units/mL penicillin and 10 mg/mL streptomycin (Thermo Scientific, USA)). Cells were preserved in tissue culture flasks at 37 °C and 5% CO2. The culture medium was replaced every two to three days.
# (§2) Cell viability was determined using the MTT colorimetric assay. A total of 10,000 cells were seeded in each well in a 96-well plate for 24 h. Then, cells were incubated with the corresponding concentration of each tested compound and with DMSO (1%) as control for 48 h. Each compound was dissolved in DMSO at a stock concentration of 0.01 M. Firstly, each compound was tested at 2 concentrations (10 µM and 50 µM) in four human tumoral cell lines MDA-MB-231, HTB-54, DU-145, and HCT-116. Serial dilutions from stock concentration with culture medium were prepared. […] The cell viability was determined by the addition of 20 µL of MTT and its incubation for 2.5 h. Later, the culture medium was removed, and 50 µL of DMSO was added to dissolve formazan crystals. The absorbance was measured at 550 nm. Inhibitory concentration 50 (IC50) and selectivity index (SI) were calculated. Three different experiments were performed independently.
# (§3) Cell viability results are expressed as the mean ± standard deviation (SD), and experiments were independently performed thrice in triplicates. IC50 values were determined using a non-linear curve regression analysis calculated by OriginPro 9.0 software.
# [1] = system: panel of 60 cancer cell lines; assay: NCI60 One-Dose screening; assay type: cell-based; details: 1·10^−5 M, 48 h, mean of 60 cancer cell lines
# Protocol: (§4) The ten compounds with the highest cell growth inhibition activity were submitted to the Developmental Therapeutics Program (DTP) of the National Cancer Institute (NCI). The assay consists of the evaluation of the cytotoxicity by a One-Dose screening at 10^−5 M against a panel of 60 cancer cell lines of different tumors (leukemia, lung, central nervous system (CNS), melanoma, ovarian, renal, prostate, and breast cancer cell lines). […] A range of 5000–40,000 cells/well were seeded and cultured in RPMI 1640 containing 5% of FBS and 2 mM L-glutamine and were inoculated into 96-well microtiter plates in 100 µL. The microtiter plates are incubated at 37 °C and 5% humidified CO2 for 24 h prior to the addition of experimental drugs. After that, an experimental drug was added, and the microtiter was incubated for 48 h.
# [2] = system: panel of 60 cancer cell lines; assay: NCI60 Five-Dose assay; assay type: cell-based; details: Five-Dose assay 0.01–100 µM, 48 h, 60 cell line panel
# Protocol: as §4
# DU-145 = assay: MTT cell viability assay, DU-145; assay type: cell-based, human; details: 48 h; for percentage of cell growth, DU-145: 10 µM, MTT screening (Figure S1); for IC50: Homo sapiens, DU-145, MTT, mean ± SD of three experiments, read-out: IC50 DU-145 (Prostate)
# Protocol: as §1, §2, §3
# 184-B5 = assay: MTT cell viability assay, non-malignant 184-B5; assay type: cell-based; details: Homo sapiens, 48 h, mean ± SD of three experiments, read-out: IC50 184-B5 (Breast, non-tumoral)
# Protocol: as §1, §2, §3
# [3] = system: MDA-MB-231, HTB-54, DU-145, and HCT-116; assay: MTT initial screening in four tumor cell lines; assay type: cell-based; details: Homo sapiens, in at least three cell lines, 48 h, read-out: cell growth inhibition
# Protocol: as §2
# HCT-116 = assay: MTT cell viability assay, HCT-116; assay type: cell-based, human; details: 10 µM, 48 h, MTT screening (Figure S1)
# Protocol: as §1, §2, §3
# MDA-MB-231 = assay: MTT cell viability assay, MDA-MB-231; assay type: cell-based, human; details: for percentage of cell growth, MDA-MB-231: 10 µM, MTT screening (Figure S1); for percentage of cell growth, MDA-MB-231 / IC50: 48 h; for IC50: Homo sapiens, MDA-MB-231, MTT, mean ± SD of three experiments, read-out: IC50 MDA-MB-231 (Breast); for Selectivity index (SI): IC50 184-B5/IC50 MDA-MB-231
# Protocol: as §1, §2, §3
SMILES,"percentage of cell growth, HTB-54 (HTB-54)",IC50 (HTB-54),"mean value of cell growth, One-Dose assay [1]",melting point,GI50 [2],"percentage of cell growth, DU-145 (DU-145)",IC50 (DU-145),IC50 (184-B5),inhibition at 10 µM [3],"percentage of cell growth, HCT-116 (HCT-116)","percentage of cell growth, MDA-MB-231 (MDA-MB-231)",IC50 (MDA-MB-231),Selectivity index (SI) (MDA-MB-231)
CC(=O)Oc1ccccc1C(=O)[Se]C(=NC1CCCCC1)NC1CCCCC1 [Compound 1],-52.60%,8.31 ± 1.01 µM,−68.50%,96 to 97 °C,< 2 µM,-96.27%,5.17 ± 0.32 µM,15.8 ± 1.33 µM,> 50%,94.15%,39.10%,8.56 ± 0.1 µM,1.84
CC(C)N=C(NC(C)C)[Se]C(=O)Cc1cccs1 [Compound 5],92.05%,,,108 to 110 °C,,143.58%,,,,139.96%,115.35%,,
O=C(NC(=[Se])NC1CCCCC1)c1ccccc1 [Compound 8],-18.34%,14.6 ± 1.11 µM,,71 to 73 °C,,-90.24%,8.83 ± 0.16 µM,27 ± 5.2 µM,> 50%,104.00%,15.90%,17.4 ± 5.09 µM,1.55
CC(=O)Oc1ccccc1C(=O)NC(=[Se])NC(C)C [Compound 16],-0.98%,23 ± 23.5 µM,,75 to 77 °C,,-67.79%,11.4 ± 3.07 µM,22.2 ± 3.41 µM,> 50%,86.98%,24.61%,10.2 ± 13.6 µM,2.17
O=C(/C=C/c1ccccc1)NC(=[Se])NC1CCCCC1 [Compound 11],57.39%,,,140 to 142 °C,,50.53%,,,,103.12%,71.20%,,
CC(C)NC(=[Se])NC(=O)c1ccccc1 [Compound 15],-57.90%,26.4 ± 16.9 µM,−31.58%,125 to 127 °C,< 2 µM,-80.57%,5.19 ± 1.55 µM,8.51 ± 4.81 µM,> 50%,123.90%,-59.41%,24.5 ± 7.55 µM,0.34
CC(C)N=C(NC(C)C)[Se]C(=O)c1ccc2c(c1)OCO2 [Compound 7],108.33%,,,138 to 140 °C,,131.68%,,,,105.51%,119.84%,,
O=C(/C=C/c1cccs1)NC(=[Se])NC1CCCCC1 [Compound 13],39.11%,,,,,52.85%,,,,145.89%,-21.69%,,
CC(C)NC(=[Se])NC(=O)c1cccs1 [Compound 17],-22.97%,5.09 ± 0.34 µM,,120 to 122 °C,,-72.56%,5.12 ± 0.07 µM,42.2 ± 11.4 µM,> 50%,115.35%,20.49%,10.2 ± 0.39 µM,4.15
CC(=O)Oc1ccccc1C(=O)NC(=[Se])NC1CCCCC1 [Compound 9],-7.60%,29.8 ± 22.5 µM,,79 to 81 °C,,-44.19%,8.76 ± 2.13 µM,11.4 ± 18 µM,> 50%,117.25%,1.88%,10.2 ± 0.29 µM,1.11
O=C(NC(=[Se])NC1CCCCC1)c1ccc2c(c1)OCO2 [Compound 12],-34.26%,10.7 ± 13.7 µM,,117 to 119 °C,,-74.14%,5.22 ± 0.13 µM,39.3 ± 18.4 µM,> 50%,76.40%,-7.07%,30.7 ± 2.31 µM,1.28
O=C(/C=C/c1ccccc1)[Se]C(=NC1CCCCC1)NC1CCCCC1 [Compound 2],74.82%,,,156 to 158 °C,,118.17%,,,,120.40%,-19.52%,,
CC(C)NC(=[Se])NC(=O)c1ccccc1O [Compound 22],3.08%,,,162 to 164 °C,,-6.12%,,,,80.19%,73.13%,,
O=C(/C=C/c1ccc2c(c1)OCO2)NC(=[Se])NC1CCCCC1 [Compound 14],44.98%,,,149 to 151 °C,,10.32%,,,,101.60%,83.89%,,
O=C(NC(=[Se])NC1CCCCC1)c1cccs1 [Compound 10],-25.90%,10.1 ± 4.88 µM,,64 to 66 °C,,-82.64%,5.18 ± 0.19 µM,49 ± 39.2 µM,> 50%,122.54%,107.48%,10.1 ± 0.25 µM,4.83
CC(C)NC(=[Se])NC(=O)/C=C/c1ccc2c(c1)OCO2 [Compound 21],27.21%,,,172 to 174 °C,,76.50%,,,,89.57%,-6.05%,,
CC(C)NC(=[Se])NC(=O)/C=C/c1ccccc1 [Compound 18],57.40%,,,,,15.40%,,,,75.78%,65.14%,,
CC(C)NC(=[Se])NC(=O)/C=C/c1cccs1 [Compound 20],38.63%,,,148 to 149 °C,,-13.89%,,,,109.34%,65.39%,,
CC(C)N=C(NC(C)C)[Se]C(=O)c1cccs1 [Compound 6],111.26%,,,120 to 122 °C,,124.09%,,,,122.83%,124.62%,,
CC(C)NC(=[Se])NC(=O)c1ccc2c(c1)OCO2 [Compound 19],-4.52%,21.9 ± 9.1 µM,,,,-82.75%,5.13 ± 0.02 µM,36.8 ± 14.5 µM,> 50%,97.76%,-45.41%,12.7 ± 10.8 µM,2.89
CC(C)N=C(NC(C)C)[Se]C(=O)c1ccccc1 [Compound 3],109.68%,,,163 to 165 °C,,149.27%,,,,119.69%,129.19%,,
